The test system of experiment [1] is natural killer (NK) cells, CD4+ and CD8+ T cells. Put plainly: Surface CD69 upregulation on lymphocytes after subcutaneous CDN (FACS). The following applies: 50, 5 and 0.5 μM in 100 μL, base of the tail, 24 hours, FIG. 11. In kind it is in vivo, BALB/c mice. Here is the method: To determine the relative ability of the derivative molecules to activate immune responses, CDN compounds were administered to 6-8 week old female BALB/c mice (in a total volume of 100 μL in HBSS) at doses of 50, 5 and 0.5 μM by subcutaneous injection into the base of the tail. Mice were assessed 24 hours later for lymphocyte immune cell activation by fluorescent activated cell sorting (FACS) for upregulation of surface CD69 expression on natural killer (NK) cells, CD4+ and CD8+ T cells, as compared to IgG1 isotype controls.

For experiment [2], the system named is human STING variants (WT, REF, HAQ, AQ and Q). Put plainly: IFNβ-LUC reporter in HEK293T cells expressing human STING alleles. The class given is cell-based. The conditions noted are these: 10 μM, digitonin permeabilization, 6 hrs, FIG. 14. As for the experimental part: MSCV2.2 plasmids encoding hSTING(REF)-GFP, hSTING(WT)-GFP, hSTING(HAQ)-GFP, hSTING(Q)-GFP and mSTING(WT)-GFP were obtained from the Vance Laboratory at UC Berkeley. hSTING(AQ)-GFP was derived from hSTING(Q)-GFP using a QuickChange Site-Directed Mutagenesis kit (Stratagene). […] 1×10^4 HEK293T STING cells were seeded in 96-well plates and transiently transfected (using Lipofectamine 2000) with 50 ng of a human IFN-β reporter plasmid (pLuc-IFN-β) expressing the human IFN-β promoter upstream of a luciferase reporter and 10 ng of TK-renilla for normalization. 24 hours later, cells were stimulated with native and synthetic CDN derivative molecules using digitonin permeabalization to ensure uniform uptake. Each STING cell line was stimulated with 10 μM of cyclic [G(3′,5′)pA(3′,5′)p] (cGAMP), cyclic [G(2′,5′)pA(3′,5′)p] […] (RR-CDA), cyclic [A(2′,5′)pA(3′,5′)p] […] (RR-CDG), cyclic [G(2′,5′)pG(3′,5′)p] […] (ML RR-CDG) in 25 ul digitonin buffer (50 mM HEPES, 100 mM KCL, 3 mM MgCl2, 0.1 mM DTT, 85 mM Sucrose, 0.2% BSA, 1 mM ATP, 0.1 mM GTP, 10 ug/ml digitonin). After 20 min, the stimulation mixtures were removed and 200 ul of standard RPMI media was added. After stimulation for 6 hrs, cell lysates were prepared and reporter gene activity measured using the Dual Luciferase Assay System (Promega) on a Spectramax M3 luminometer.

A further experiment concerns hSTING (Q). Description: IFNβ-LUC reporter in HEK293T cells expressing hSTING (Q). The class given is cell-based, human. The conditions noted are these: 10 μM, digitonin permeabilization, 6 hrs, FIG. 14. An excerpt:
To determine the responsiveness of the five known natural human STING variants (referred to as WT, REF, HAQ, AQ and Q) to the native and derivative molecules, a panel of human embryonic kidney (HEK) 293T cell lines that expressed the human STING alleles was generated. […] MSCV2.2 plasmids encoding hSTING(REF)-GFP, hSTING(WT)-GFP, hSTING(HAQ)-GFP, hSTING(Q)-GFP and mSTING(WT)-GFP were obtained from the Vance Laboratory at UC Berkeley. hSTING(AQ)-GFP was derived from hSTING(Q)-GFP using a QuickChange Site-Directed Mutagenesis kit (Stratagene). The sequence of the hSTING(REF) allele is also known as the Barber allele (Ishikawa, H., and Barber, G. N. (2008). Nature 455, 674-678), and has the NCBI Reference Sequence NP_938023.1. The amino acid difference between hSTING(REF) and the other WT, HAQ, AQ and Q human STING alleles are shown in FIG. 13, which is adapted from Yi et al., Plos One 8: e77846 (2013). Stable HEK 293T-derived cell lines expressing each of the individual human STING alleles were generated by FACS sorting of GFP positive cells using a Mo Flo cell sorter at the Cancer Research Laboratory Flow Cytometry Facility at UC Berkeley. 1×10^4 HEK293T STING cells were seeded in 96-well plates and transiently transfected (using Lipofectamine 2000) with 50 ng of a human IFN-β reporter plasmid (pLuc-IFN-β) expressing the human IFN-β promoter upstream of a luciferase reporter and 10 ng of TK-renilla for normalization. 24 hours later, cells were stimulated with native and synthetic CDN derivative molecules using digitonin permeabalization to ensure uniform uptake. Each STING cell line was stimulated with 10 μM of cyclic [G(3′,5′)pA(3′,5′)p] (cGAMP), cyclic [G(2′,5′)pA(3′,5′)p] (ML-cGAMP), Rp, Rp dithio cyclic [G(2′,5′)pA(3′,5′)p] […] (CDA), Rp, Rp dithio cyclic [A(3′,5′)pA(3′,5′)p] (RR-CDA), cyclic [A(2′,5′)pA(3′,5′)p] (ML-CDA), Rp, Rp dithio cyclic [A(2′,5′)pA(3′,5′)p] (ML RR-CDA), cyclic [G(3′,5′)pG(3′,5′)p] (CDG), Rp, Rp dithio cyclic [G(3′,5′)pG(3′,5′)p] (RR-CDG), cyclic [G(2′,5′)pG(3′,5′)p] (ML-CDG) or Rp, Rp dithio cyclic [G(2′,5′)pG(3′,5′)p] (ML RR-CDG) in 25 ul digitonin buffer (50 mM HEPES, 100 mM KCL, 3 mM MgCl2, 0.1 mM DTT, 85 mM Sucrose, 0.2% BSA, 1 mM ATP, 0.1 mM GTP, 10 ug/ml digitonin). After 20 min, the stimulation mixtures were removed and 200 ul of standard RPMI media was added. After stimulation for 6 hrs, cell lysates were prepared and reporter gene activity measured using the Dual Luciferase Assay System (Promega) on a Spectramax M3 luminometer.

Consider `Nc1ncnc2c1ncn2[C@@H]1O[C@@H]2COP(O)(=S)O[C@@H]3C(O)[C@@H](COP(O)(=S)O[C@H]2[C@H]1O)O[C@H]3n1cnc2c(N)ncnc21` (stereo partly drawn) [ML RR-CDA, dithio-[RP, RP]-cyclic-[A(2′,5′)pA(3′,5′)p]], for which the “immune cell activation (surface CD69 on NK, CD4+ and CD8+ T cells)” value in experiment [1] is “induced NK and T cell activation, although to a lesser extent than the ML RR-CDG molecule”. Moreover, the “IFNβ reporter activity, all human STING alleles” value in experiment [2] is “strongly induce IFNβ reporter activity by all human STING alleles”. In addition, the “IFNβ reporter response of hSTING (Q)” value in the experiment with hSTING (Q) was “responsive to stimulation”.
In the case of `Nc1nc2c(ncn2[C@@H]2O[C@@H]3CO[P@@](O)(=S)O[C@@H]4[C@H](O)[C@@H](CO[P@@](O)(=S)O[C@H]3[C@H]2O)O[C@H]4n2cnc3c(=O)[nH]c(N)nc32)c(=O)[nH]1` [ML RR-CDG, dithio-[RP,RP]-cyclic-[G(2′,5′)pG(3′,5′)p]], in experiment [1], the “immune cell activation (surface CD69 on NK, CD4+ and CD8+ T cells)” value was “potent immune activation of NK and T cells in a dose-dependent manner”. Also, the “IFNβ reporter activity, all human STING alleles” value in experiment [2] was “strongly induce IFNβ reporter activity by all human STING alleles”. In addition, the “IFNβ reporter response of hSTING (Q)” value in the experiment on hSTING (Q) was “responsive to stimulation”.
